We go through three compounds from publication PMC6591174, “The beneficial androgenic action of steroidal aromatase inactivators in estrogen-dependent breast cancer after failure of nonsteroidal drugs” (Cell Death & Disease, 2019).

Molecules are shown by their SMILES. pIC50: −log10 of the molar value.

The test system of one assay is ZR-75-1 cells. The assay can be described thus: Cell proliferation assay (CCK8), ZR-75-1. The assay is classed as cell-based, human. As to conditions: for proliferation of ZR-75-1 cells: 1 nM-10 μM, 6 days, 10% PRF-CT with 1 nM E2; for antiproliferative effect in presence of OH-Flutamide, ZR-75-1: 100 nM compound with 100 nM OH-Flutamide. The procedure:
(§1) Fig. 2 Proliferative response of cancer cells to indicated compounds. a–c the effect of concentrations of different compounds on the growth of the cells. […] Cell growth was measured as described in the “Materials and methods”. The proliferation of cells is expressed as the ratio of the cells compared with the control wells (untreated cells). d, e Influence of different compounds on the cell cycle of MCF-7 cells. MCF-7 cells were cultured in 10% PRF-CT with E2 (1 nM) for 3 days before plating. Cells were seeded in six-well plates and, the next day, starved in PRF for 24 h. Cells were exposed to different compounds at a concentration of 100 nM for 72 h, and then subjected to cell-cycle analysis as described in “Materials and methods”. f MCF-7 cells on poly-L-lysine-coated glass coverslips were exposed to compounds (100 nM) in 10% PRF-CT with 1 nM E2 for 72 h. Control cells were treated with vehicle. DAPI stains DNA, and the secondary anti-mouse antibody to detect the antibody bound to Ki-67 is labeled with the cyanine dye Cy3. The cells were stained with DAPI (blue). Immunofluorescence staining of Ki-67 of cells was observed using fluorescence microscope. Red: Ki-67; blue: nucleus.Typical image is shown. Scale bars: 10 μm. Data represent a mean ± SEM of three independent experiments, each in triplicate; bars, SEM. *P ≤ 0.05 vs. control
(§2) After 24 h, cells were exposed for 3–6 days to various concentrations of compounds (1 nM– 10 μM) or left untreated. The incubation time and the compounds concentrations were chosen based on previous studies[17],[32]–[34]. The effects of the various drugs on cell proliferation at the indicated concentrations (1 nM– 10 μM) were determined by using a CCK8 kit (Dojindo Laboratories, Kumamoto, Japan) according to the manufacturer’s protocol. The absorbance at 450 nm was measured by using a Versamax microplate reader (Thermo Varioskan Flash, USA). Cell growth is expressed as the ratio of the cells compared with the control wells (untreated cells).

Assay [1] relates to prostate (P), seminal vesicle (SV), levator ani muscle (LA). The assay can be described thus: Hershberger assay in orchiectomized rats. It is filed as in vivo, Wistar male rats. As to conditions: doses as in Fig. 5, s.c. once a day, 12 days, castrated rats. The method, then: Fig. 5 Estimation of the androgenic and myotrophic activities of the indicated compounds obtained by the Hershberger Assay. Wistar male rats were orchiectomized (orchi) or sham-operated (intact) under ether anesthesia. After 14 days of endogenous hormonal decline, animals were randomly allocated to treatment and vehicle groups (n = 6). The numbers at the end of the abbreviations correspond to the dose in mg/kg body weight of the animal. Flutamide was given by gavage (10 mg/kg/day). […] Then the animals were treated once a day. The rats were sacrificed after completion of the 12-day treatment. Following removal, wet weights of the prostate (P), seminal vesicle (SV), levator ani muscle (LA) were determined. a Size and shape of P, SV and LA at the end of the treatment period. b, c, and d, influence of treatment with the compounds alone or together with the antiandrogen flutamide at the indicated doses on the weight of the organs (P, SV and LA) of the castrated animals. The mean wet weight is represented by the bars in the graphs. Values are means ± SEM; bars, SEM. *P ≤ 0.05, **P ≤ 0.01 vs. control
The Hershberger assay was performed according to the guidelines of the rodent Hershberger assay. Male Wistar rats (140 g, 5–6 weeks) were orchiectomized (orchi) or sham-operated (intact) under ether anesthesia. After 14 days of endogenous hormonal decline, animals were randomly allocated to treatment and vehicle groups (n = 6); orchi group = orchi rats receiving sham injections; intact group = sham-operated rats receiving sham injections; treatment group = orchi rats receiving drugs injections by subcutaneous. The antiandrogen flutamide given by gavage (10 mg/kg/day). Drugs were dissolved in ethanol and diluted in corn oil. The animals were treated once a day. Rats were sacrificed after completion of the 12-day treatment. Following removal, the wet weights of the P, SV, and LA muscle were determined. The data of tissue weights are presented as mean ± SEM.

Assay [2] addresses T1, Rat AR ligand-binding domains (His-GST-ARLBD) (Rattus norvegicus, UniProt P15207).
T1 construct: purchased Invitrogen
T1 sequence (P15207 651-882 limits assumed): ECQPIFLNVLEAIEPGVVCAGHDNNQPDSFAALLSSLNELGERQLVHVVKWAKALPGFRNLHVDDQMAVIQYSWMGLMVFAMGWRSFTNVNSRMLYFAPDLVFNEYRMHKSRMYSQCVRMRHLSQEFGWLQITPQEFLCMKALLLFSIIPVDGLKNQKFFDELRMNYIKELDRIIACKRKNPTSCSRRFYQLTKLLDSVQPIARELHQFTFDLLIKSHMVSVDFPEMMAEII
As to the kind of experiment: AR fluorescence polarization-based competitive hormone-binding assay (PolarScreen AR Competitor Assay, Red). As to conditions: 25 nM His-GST-ARLBD, 2 nM Fluormone AL Red; read-out: IC50 of competitive binding to AR. From the text:
Fig. 4 The affinity of indicated compounds to the AR and their regulation of AR transcriptional activity. a AR fluorescence polarization-based competitive hormone-binding assays. […] Curve fitting was done using GraphPad Prism software (version 7.00). […] ARE(3×)-regulated dual-luciferase activity in U2-OS cells under steroid-free conditions. Cells were transiently transfected with pcDNA3.1-AR and ARE3-luc2P (firefly luciferase reporter plasmids) and the internal normalization control pRL-TK (Renilla luciferase reporter plasmid). Six hours after transfection, cells were treated as indicated. Then they were assayed 48 h after transfection for dual-luciferase activity. […] Briefly, compounds were dissolved in DMSO and mixed at 2% (vol/vol) with AR Red Screening Buffer. The tested compounds were subsequently serially diluted in two-fold increments with AR Red Screening Buffer and mixed 1:1 (vol/vol) with a 2 × AR/Fluormone AL complex. Competition for binding AR between Fluormone AL and the tested compounds was allowed to come to equilibrium for 4 h and not more than 20 h at room temperature in the dark. Fluorescence polarization value (mP) was measured on a fluorescence polarization plate reader (Biotech cytation5). Each compound dose was performed in triplicate, relative error was calculated from the standard error of the mean (SEM), and curve fitting was performed using GraphPad Prism™ 7.0 software.
A general note: Fluorescence polarisation rises when a labelled molecule tumbles more slowly, as on binding a larger partner.

A further assay concerns MCF-7 cells. The assay can be described thus: Cell proliferation assay (CCK8), MCF-7. It is filed as cell-based, human. As to conditions: for proliferation of MCF-7 cells: 1 nM-10 μM, 6 days, 10% PRF-CT with 1 nM E2; for antiproliferative effect in presence of OH-Flutamide, MCF-7: 100 nM compound with 100 nM OH-Flutamide. The procedure:
as §1, §2

By pIC50 is commonly meant the IC50 on a negative log10 scale, so that one unit is a factor of ten.

Regarding `C[C@]12CC[C@H]3[C@@H](CCC4=C(O)C(=O)CC[C@@]43C)[C@@H]1CC[C@@H]2O` [4-OHT, 4-hydroxytestosterone], in the assay with ZR-75-1 cells, the “proliferation of ZR-75-1 cells” value is on record as “inhibits the proliferation of ZR-75-1 cells only at micromolar concentrations” and the “antiproliferative effect in presence of OH-Flutamide, ZR-75-1” value (“antiproliferative effect … ZR-75-1” below) is “behave like DHT”. In assay [1], the “myotrophic effect (LA)” value is “a little more myotrophic than 17-HEXE”. Further, the pIC50 in assay [2] was 7.74. Further, in the assay on MCF-7 cells, the “proliferation of MCF-7 cells” value is recorded as “strongly antiproliferative” and the “antiproliferative effect in presence of OH-Flutamide, MCF-7” value (“antiproliferative effect … MCF-7” below) is listed as “behave like DHT”.

Regarding `C=C1C[C@H]2[C@@H]3CC[C@H](O)[C@@]3(C)CC[C@@H]2[C@@]2(C)C=CC(=O)C=C12` [17-HEXE, 17-hydroexemestane], the “antiproliferative effect … ZR-75-1” value with ZR-75-1 cells is “behave like DHT”. Besides, in assay [1], the “androgenic effect (P and SVs, size and wet weight)” value is reported as “a little more androgenic than 4-OHT”. Also, in assay [2], the pIC50 is 7.98. Further, the “antiproliferative effect … MCF-7” value with MCF-7 cells is “behave like DHT”.

With `C[C@]12CCC(=O)C[C@@H]1CC[C@@H]1[C@@H]2CC[C@]2(C)[C@@H](O)CC[C@@H]12` [DHT, dihydrotestosterone], in the assay with ZR-75-1 cells, the “proliferation of ZR-75-1 cells” value was “inhibits the proliferation of MCF-7 and ZR-75-1 cells at all tested concentrations”; the “antiproliferative effect … ZR-75-1” value was “almost completely abolished”. Further, in the assay on MCF-7 cells, the “proliferation of MCF-7 cells” value is “inhibits the proliferation of MCF-7 and ZR-75-1 cells at all tested concentrations”; the “antiproliferative effect … MCF-7” value is reported as “almost completely abolished”.
